Consider 14 molecules from patent US20220153745A1, “DISUBSTITUTED BENZOTHIENYL-PYRROLOTRIAZINES AND THEIR USE AS FGFR KINASE INHIBITORS” (Bayer Intellectual Property GmbH, priority 2011, published 2022).

Structures are written as SMILES. Counter-ions that a name gives are not always drawn.

Type in all cases: biochemical
The target of one assay is T1, FGFR-1 (Homo sapiens, UniProt P11362).
T1 construct: human FGFR-1 from amino acids G400 to R800 as in GenBank entry NM_015850; purchased Proqinase 0101-0000-1; host or cells: SF9 insect cells (baculovirus)
Description: FGFR-1 high ATP kinase assay (TR-FRET). The conditions noted are these: 2 mM ATP, 15 min pre-incubation; compounds of the invention (Table 1A).

In another assay the target is T2, mTOR (Homo sapiens, UniProt P42345).
T2 construct: human mTOR amino acids from 1360 to 2549; purchased Invitrogen 4753; host or cells: insect cells
Description: mTOR kinase assay (TR-FRET, for comparative purposes). The conditions noted are these: read-out: mTOR % inhibition @ 1 μM, mean inhibition at 1 μM test compound, 40 μM ATP.

Another assay concerns the target T3, FGFR-3 (Homo sapiens, UniProt P22607).
T3 construct: human FGFR-3 from amino acids R397 to T806 as in NCBI/Protein entry NP_000133.1; purchased Proqinase 1068-0000-1; host or cells: SF9 insect cells (baculovirus)
Description: FGFR-3 kinase assay (TR-FRET). Conditions: 10 μM ATP, 15 min pre-incubation; compounds of the invention (Table 2A).

T1 sequence (P11362 402-822): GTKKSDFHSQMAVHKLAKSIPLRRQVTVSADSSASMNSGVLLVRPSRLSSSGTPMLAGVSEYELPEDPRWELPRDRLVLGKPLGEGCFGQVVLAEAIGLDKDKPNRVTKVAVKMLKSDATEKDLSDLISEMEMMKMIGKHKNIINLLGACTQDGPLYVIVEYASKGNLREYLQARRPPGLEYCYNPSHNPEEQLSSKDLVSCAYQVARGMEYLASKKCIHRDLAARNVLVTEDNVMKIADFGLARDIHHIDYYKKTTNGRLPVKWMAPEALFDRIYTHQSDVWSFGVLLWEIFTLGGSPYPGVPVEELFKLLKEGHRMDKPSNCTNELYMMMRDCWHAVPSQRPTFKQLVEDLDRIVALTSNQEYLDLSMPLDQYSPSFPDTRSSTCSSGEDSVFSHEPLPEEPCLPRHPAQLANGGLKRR
T2 sequence (P42345 1360-2549): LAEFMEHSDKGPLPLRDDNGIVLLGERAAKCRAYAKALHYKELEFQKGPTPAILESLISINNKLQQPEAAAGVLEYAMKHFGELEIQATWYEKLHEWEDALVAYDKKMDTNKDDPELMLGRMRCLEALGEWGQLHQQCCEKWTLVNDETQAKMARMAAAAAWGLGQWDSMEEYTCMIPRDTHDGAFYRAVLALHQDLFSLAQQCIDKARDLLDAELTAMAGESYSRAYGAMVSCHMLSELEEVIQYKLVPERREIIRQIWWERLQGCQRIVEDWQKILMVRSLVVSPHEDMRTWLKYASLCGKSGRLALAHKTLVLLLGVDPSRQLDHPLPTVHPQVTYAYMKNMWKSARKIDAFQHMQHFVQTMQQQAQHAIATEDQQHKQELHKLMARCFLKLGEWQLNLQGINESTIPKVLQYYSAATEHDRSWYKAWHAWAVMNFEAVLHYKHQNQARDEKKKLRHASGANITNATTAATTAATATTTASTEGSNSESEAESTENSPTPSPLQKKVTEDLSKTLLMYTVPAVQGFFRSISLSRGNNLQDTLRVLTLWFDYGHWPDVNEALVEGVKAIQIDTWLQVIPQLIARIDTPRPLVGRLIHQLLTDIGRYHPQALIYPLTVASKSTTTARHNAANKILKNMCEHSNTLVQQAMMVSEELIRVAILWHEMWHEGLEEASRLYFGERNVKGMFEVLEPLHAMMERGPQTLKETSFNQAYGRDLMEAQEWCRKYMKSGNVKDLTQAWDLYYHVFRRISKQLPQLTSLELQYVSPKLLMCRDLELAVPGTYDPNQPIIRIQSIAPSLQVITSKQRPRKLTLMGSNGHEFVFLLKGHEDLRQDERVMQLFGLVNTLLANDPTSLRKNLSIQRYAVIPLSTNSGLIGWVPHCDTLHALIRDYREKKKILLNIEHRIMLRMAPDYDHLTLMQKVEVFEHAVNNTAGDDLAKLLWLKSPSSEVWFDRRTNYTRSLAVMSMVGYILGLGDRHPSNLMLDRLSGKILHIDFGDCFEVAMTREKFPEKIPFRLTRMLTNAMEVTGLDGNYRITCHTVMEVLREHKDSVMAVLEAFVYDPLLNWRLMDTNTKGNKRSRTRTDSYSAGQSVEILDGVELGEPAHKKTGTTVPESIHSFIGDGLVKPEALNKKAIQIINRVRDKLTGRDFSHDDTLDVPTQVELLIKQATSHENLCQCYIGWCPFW
T3 sequence (P22607 397-806): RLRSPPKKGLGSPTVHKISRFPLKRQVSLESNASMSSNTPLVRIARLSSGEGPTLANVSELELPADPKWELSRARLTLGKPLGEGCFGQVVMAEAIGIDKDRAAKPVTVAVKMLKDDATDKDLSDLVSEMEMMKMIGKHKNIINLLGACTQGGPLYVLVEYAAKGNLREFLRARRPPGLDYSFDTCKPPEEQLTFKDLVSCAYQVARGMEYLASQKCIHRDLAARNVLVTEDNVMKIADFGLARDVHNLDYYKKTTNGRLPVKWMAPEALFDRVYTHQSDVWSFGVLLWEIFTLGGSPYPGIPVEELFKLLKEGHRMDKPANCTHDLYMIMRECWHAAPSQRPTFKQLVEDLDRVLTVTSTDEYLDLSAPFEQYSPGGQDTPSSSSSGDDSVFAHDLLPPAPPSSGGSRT

As to `CCOCc1c(-c2cc3cc(C)cc(OC)c3s2)c2c(N)ncnn2c1CN1CCN(C(C)=O)CC1` [Example 11, 1-(4-{[4-Amino-6-(ethoxymethyl)-5-(7-methoxy-5-methyl-1-benzothiophen-2-yl)pyrrolo[2,1-f][1,2,4]triazin-7-yl]methyl}piperazin-1-yl)ethanone dihydrochloride], the IC50 against FGFR-1 amounted to 6.5 nM. In addition, the inhibition at 1 µM at mTOR worked out at 33.2%.

`COCc1c(-c2cc3cc(C)cc(OC)c3s2)c2c(N)ncnn2c1CN1CC[C@](C)(N)C1` [Example 14, 7-{[(3S)-3-Amino-3-methylpyrrolidin-1-yl]methyl}-6-(methoxymethyl)-5-(7-methoxy-5-methyl-1-benzothiophen-2-yl)pyrrolo[2,1-f][1,2,4]triazin-4-amine trihydrochloride]: inhibition on FGFR-3 was half-maximal at 2.5 nM (IC50). In addition, the inhibition at 1 µM at mTOR was 15.7%.

Molecule `COCc1c(-c2cc3cc(C)cc(OC)c3s2)c2c(N)ncnn2c1CN1CCN(C(C)=O)CC1` [Example 16, 1-(4-{[4-Amino-6-(methoxymethyl)-5-(7-methoxy-5-methyl-1-benzothiophen-2-yl)pyrrolo[2,1-f]-[1,2,4]triazin-7-yl]methyl}piperazin-1-yl)ethanone dihydrochloride] gave an IC50 on FGFR-3 of 9.4 nM. Further, the inhibition at 1 µM on mTOR is 36.9%.

Take `COc1cc(C)cc2cc(-c3c(COCCO)c(CN4CCNCC4)n4ncnc(N)c34)sc12` [Example 22, 2-{[4-Amino-5-(7-methoxy-5-methyl-1-benzothiophen-2-yl)-7-(piperazin-1-ylmethyl)pyrrolo[2,1-f]-[1,2,4]triazin-6-yl]methoxy}ethanol dihydrochloride]: the values for the IC50 against FGFR-1 and against FGFR-3 were 0.9 nM and 4.7 nM, respectively. Further, the inhibition at 1 µM on mTOR is 17.6%.

Turning to `COc1cc(C)cc2cc(-c3c(COCCN)c(CN4CCNCC4)n4ncnc(N)c34)sc12` [Example 30, 6-[(2-Aminoethoxy)methyl]-5-(7-methoxy-5-methyl-1-benzothiophen-2-yl)-7-(piperazin-1-ylmethyl)pyrrolo[2,1-f][1,2,4]triazin-4-amine trihydrochloride], the IC50 on FGFR-1 stood at 2.8 nM; against FGFR-3 it was 6.4 nM. Further, the inhibition at 1 µM at mTOR was 21.1%.

In turn, `CCNCc1c(-c2cc3cc(C)cc(OC)c3s2)c2c(N)ncnn2c1CN1CCNCC1` [Example 38, 6-[(Ethylamino)methyl]-5-(7-methoxy-5-methyl-1-benzothiophen-2-yl)-7-(piperazin-1-ylmethyl)pyrrolo[2,1-f][1,2,4]triazin-4-amine trihydrochloride] came in with an IC50 on FGFR-1 of 6.9 nM. Further, the inhibition at 1 µM at mTOR turned out to be 20.8%.

For the molecule `COc1cc(C)cc2cc(-c3c(CNCCO)c(CN4CCNCC4)n4ncnc(N)c34)sc12` [Example 39, 2-({[4-Amino-5-(7-methoxy-5-methyl-1-benzothiophen-2-yl)-7-(piperazin-1-ylmethyl)pyrrolo[2,1-f]-[1,2,4]triazin-6-yl]methyl}amino)ethanol trihydrochloride], the half-inhibitory concentration (IC50) against FGFR-1 was found to be 1.1 nM; at FGFR-3 it was 4.9 nM. For the same molecule, the inhibition at 1 µM on mTOR turned out to be 11.5%.

Regarding `COc1cc(C)cc2cc(-c3c(CNC4CCC4)c(CN4CCNCC4)n4ncnc(N)c34)sc12` [Example 44, 6-[(Cyclobutylamino)methyl]-5-(7-methoxy-5-methyl-1-benzothiophen-2-yl)-7-(piperazin-1-ylmethyl)pyrrolo[2,1-f][1,2,4]triazin-4-amine trihydrochloride], the IC50 on FGFR-1 worked out at 2.1 nM. The inhibition at 1 µM on mTOR was determined as 13.3%.

For `COc1cc(C)cc2cc(-c3c(CN4CCCC4)c(CN4CCNCC4)n4ncnc(N)c34)sc12` [Example 45, 5-(7-Methoxy-5-methyl-1-benzothiophen-2-yl)-7-(piperazin-1-ylmethyl)-6-(pyrrolidin-1-ylmethyl)pyrrolo[2,1-f][1,2,4]triazin-4-amine trihydrochloride], the IC50 is 3.4 nM on FGFR-1 and 9.7 nM at FGFR-3. Also, the inhibition at 1 µM at mTOR was found to be 15.5%.

In the case of `COc1cc(C)cc2cc(-c3c(CNC4CC4)c(CN4CCNCC4)n4ncnc(N)c34)sc12` [Example 46, 6-[(Cyclopropylamino)methyl]-5-(7-methoxy-5-methyl-1-benzothiophen-2-yl)-7-(piperazin-1-ylmethyl)pyrrolo[2,1-f][1,2,4]triazin-4-amine trihydrochloride], the IC50 at FGFR-1 was 3.2 nM; at FGFR-3 it was 8.1 nM. Further, the inhibition at 1 µM at mTOR stood at 11%.

As for `COc1cc(C)cc2cc(-c3c(CNCC4CC4)c(CN4CCNCC4)n4ncnc(N)c34)sc12` [Example 47, 6-{[(Cyclopropylmethyl)amino]methyl}-5-(7-methoxy-5-methyl-1-benzothiophen-2-yl)-7-(piperazin-1-ylmethyl)pyrrolo[2,1-f][1,2,4]triazin-4-amine trihydrochloride], the IC50 on FGFR-1 turned out to be 1.7 nM; on FGFR-3, 3.4 nM. In addition, the inhibition at 1 µM at mTOR was 14.7%.

On FGFR-3, `COc1cc(C)cc2cc(-c3c(-c4cnco4)c(CN4CCNCC4)n4ncnc(N)c34)sc12` [Example 61, 5-(7-Methoxy-5-methyl-1-benzothiophen-2-yl)-6-(1,3-oxazol-5-yl)-7-(piperazin-1-ylmethyl)pyrrolo[2,1-f][1,2,4]triazin-4-amine trihydrochloride] registered a half-maximal inhibitory concentration (IC50) of 0.9 nM. Besides, the inhibition at 1 µM at mTOR stood at 15.9%.

Consider `COc1cc(C)cc2cc(-c3c(CN)c(CN4CCNCC4)n4ncnc(N)c34)sc12` [Example 62, 6-(Aminomethyl)-5-(7-methoxy-5-methyl-1-benzothiophen-2-yl)-7-(piperazin-1-ylmethyl)pyrrolo[2,1-f][1,2,4]triazin-4-amine trihydrochloride], for which the IC50 is 3.1 nM on FGFR-1 and 11 nM at FGFR-3. In addition, at mTOR, the inhibition at 1 µM worked out at 0.2%.

For `COc1cc(C)cc2cc(-c3c(CNC(C)=O)c(CN4CCNCC4)n4ncnc(N)c34)sc12` [Example 64, N-{[4-Amino-5-(7-methoxy-5-methyl-1-benzothiophen-2-yl)-7-(piperazin-1-ylmethyl)pyrrolo[2,1-f][1,2,4]triazin-6-yl]methyl}acetamide dihydrochloride], the IC50 on FGFR-1 was found to be 1 nM; against FGFR-3 it was 2.9 nM. For the same molecule, the inhibition at 1 µM at mTOR is 1.1%.
